In patent US20180186742A1, “PICOLINAMIDES AS FUNGICIDES” (Dow AgroSciences LLC, priority 2017, published 2018):
Read-outs that look alike come from different tables or passages of the source.

Experiments:
Assay type in all cases: in vivo
Zymoseptoria tritici = test: Leaf blotch of wheat (SEPTTR), disease control on wheat seedlings; conditions: for pest or weed control at 121.5 g/ha: low volume application at 121.5 g/H; for pest or weed control at 100 ppm: high volume application at 100 ppm
Procedure, shortened: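 Yuma wheat seedlings with the first leaf fully emerged were sprayed to run-off with compound in acetone plus nine volumes of water containing 110 ppm Triton X-100; track-spray tests used EC formulations with 0.1% Trycol 5941. Z. tritici inoculation came before or after treatment, followed by 100% RH dew periods and a 20 °C greenhouse. Percent control was calculated from severity versus untreated plants.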

Phakopsora pachyrhizi = test: Asian soybean rust (PHAKPA), disease control on soybean seedlings; conditions: High volume application at 25 ppm
Protocol: Technical grades of materials were dissolved in acetone, which were then mixed with nine volumes of water containing 0.011% Tween 20. The fungicide solutions were applied onto soybean seedlings using an automated booth sprayer to run-off. All sprayed plants were allowed to air dry prior to further handling.
Soybean plants (variety Williams 82) were grown in soil-less Metro mix, with one plant per pot. Two week old seedlings were used for testing. Plants were inoculated either 3 days prior to or 1 day after fungicide treatments. Plants were incubated for 24 h in a dark dew room at 22° C. and 100% relative humidity then transferred to a growth room at 23° C. for disease to develop. Disease severity was assessed on the sprayed leaves.

Puccinia triticina = test: Wheat brown rust (PUCCRT), disease control on wheat seedlings; conditions: for pest or weed control at 121.5 g/ha: low volume application at 121.5 g/H; for pest or weed control at 100 ppm: high volume application at 100 ppm
Procedure, shortened: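 Compounds in acetone, diluted with nine volumes of water containing 110 ppm Triton X-100, sprayed to run-off on first-leaf Yuma wheat seedlings; track-spray tests used EC formulations with 0.1% Trycol 5941. Puccinia triticina spores applied before or after treatment. Overnight dark dew room at 22° C, 100% humidity, then greenhouse at 24° C.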

[1] = 24 h, 1 Day Protectant, read-out: SEPTTR disease control, 1DP, LV activity
[2] = 72 h, 3 Day Curative, read-out: SEPTTR disease control, 3DC, LV activity
[3] = 24 h, 1 Day Protectant, read-out: PHAKPA 1DP disease control rating
[4] = 72 h, 3 Day Curative, read-out: PHAKPA 3DC disease control rating
[5] = 24 h, 1 Day Protectant, read-out: PUCCRT disease control, 1DP, LV activity
[6] = 72 h, 3 Day Curative, read-out: PUCCRT disease control, 3DC, LV activity
[7] = 24 h, 1 Day Protectant, read-out: SEPTTR disease control, 1DP, HV activity
[8] = 72 h, 3 Day Curative, read-out: SEPTTR disease control, 3DC, HV activity
[9] = 24 h, 1 Day Protectant, read-out: PUCCRT disease control, 1DP, HV activity
[10] = 72 h, 3 Day Curative, read-out: PUCCRT disease control, 3DC, HV activity

Structure (SMILES) | pest or weed control at 121.5 g/ha (Zymoseptoria tritici; [1]) | pest or weed control at 121.5 g/ha (Zymoseptoria tritici; [2]) | pest or weed control at 25 ppm (Phakopsora pachyrhizi; [3]) | pest or weed control at 25 ppm (Phakopsora pachyrhizi; [4]) | pest or weed control at 121.5 g/ha (Puccinia triticina; [5]) | pest or weed control at 121.5 g/ha (Puccinia triticina; [6]) | pest or weed control at 100 ppm (Zymoseptoria tritici; [7]) | pest or weed control at 100 ppm (Zymoseptoria tritici; [8]) | pest or weed control at 100 ppm (Puccinia triticina; [9]) | pest or weed control at 100 ppm (Puccinia triticina; [10])
COCCC(=O)Oc1c(OC)ccnc1C(=O)N[C@H](C(=O)O[C@@H](C)[C@H](c1ccc(F)cc1C)C(C)C)C(C)C [Compound 351] | > 80% | < 80% | > 80% | < 80% | > 80% | < 80% | – | – | – | –
COc1ccnc(C(=O)N[C@@H](C)C(=O)O[C@H](C)[C@H](c2ccc(F)cc2C)C2CCCC2)c1OCOC(C)=O [Compound 198] | < 80% | < 80% | < 80% | < 80% | < 80% | < 0% | – | – | – | –
COc1ccnc(C(=O)N[C@@H](C)C(=O)O[C@@H](C)[C@@H](c2ccc(C)cc2C)C2CCC2)c1OCOC(C)=O [Compound 240] | < 80% | > 80% | > 80% | < 80% | > 80% | > 80% | – | – | – | –
COc1ccnc(C(=O)N[C@@H](C)C(=O)O[C@@H](C)[C@@H](c2ccc(C)cc2C)C2CCCC2)c1OC(C)=O [Compound 201] | < 80% | < 80% | < 80% | < 0% | > 80% | < 80% | – | – | – | –
COc1ccnc(C(=O)N[C@@H](C)C(=O)O[C@@H](C)[C@H](c2ccc(F)cc2C)C(C)C)c1OCOC(C)=O [Compound 215] | > 80% | > 80% | > 80% | > 80% | > 80% | > 80% | – | – | – | –
COc1ccnc(C(=O)N[C@@H](C)C(=O)O[C@@H](C)[C@@H](c2ccc(F)cc2C)C2CCC2)c1O [Compound 121] | – | – | – | – | – | – | < 80% | > 80% | > 80% | < 80%
COc1ccnc(C(=O)N[C@@H](CC(C)C)C(=O)O[C@@H](C)[C@H](c2ccc(F)cc2C)C(C)C)c1O [Compound 320] | – | – | – | – | – | – | < 80% | < 80% | < 80% | < 80%
COc1ccnc(C(=O)N[C@@H](C)C(=O)O[C@@H](C)[C@H](c2cccc(C)c2C)C(C)C)c1O [Compound 326] | – | – | – | – | – | – | < 80% | > 80% | > 80% | > 80%
COc1ccnc(C(=O)N[C@@H](C)C(=O)O[C@@H](C)[C@H](c2ccc(F)cc2C)C2CCC2)c1O [Compound 127] | – | – | – | – | – | – | > 80% | < 80% | > 80% | > 80%
COc1cc(C)ccc1[C@H](C(C)C)[C@H](C)OC(=O)[C@H](C)NC(=O)c1nccc(OC)c1OCOC(C)=O [Compound 259] | < 80% | – | – | – | > 80% | > 80% | – | – | – | –
COc1ccnc(C(=O)N[C@@H](C)C(=O)O[C@@H](C)[C@H](c2ccc(C)cc2)C(C)C)c1OC(C)=O [Compound 168] | < 80% | < 80% | – | – | > 80% | > 80% | – | – | – | –
COc1ccc([C@H](C(C)C)[C@H](C)OC(=O)[C@H](C)NC(=O)c2nccc(OC)c2OCOC(C)=O)c(F)c1 [Compound 257] | > 80% | – | – | – | > 80% | > 80% | – | – | – | –
COc1ccnc(C(=S)N[C@@H](C)C(=O)OC(C)[C@H](c2ccccc2)C2CCCC2)c1O (stereo partly shown) [Compound 114] | – | – | – | – | – | – | > 80% | < 80% | > 80% | < 80%
COc1ccnc(C(=O)N[C@@H](C)C(=O)O[C@H](C)[C@H](c2ccc(F)cc2C)C(C)C)c1O [Compound 130] | – | – | – | – | – | – | < 80% | < 80% | > 80% | < 80%
